According to US7094801B2, “Chalcone derivatives and their use to treat diseases” (Atherogenics, Inc., priority 2001, dated 2006):
pIC50: −log10 of the molar value.

Tests used:
VCAM-1 = assay: In Vitro VCAM-1 Assay (TNF-α stimulated HAEC or HPAEC, cell ELISA); assay type: cell-based, human; settings: TNF-α (1 ng/ml) stimulated HAEC or HPAEC, approximately 16 hours
Method in brief: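 Primary human aortic or pulmonary endothelial cells (below passage 9) stimulated with TNF-α (1 ng/ml) plus compound (four concentrations, ≤0.25% DMSO) for about 16 h. Surface VCAM-1 detected by cell ELISA (HRP/TMB, OD 450 nm). IC50 taken as the concentration giving 50% inhibition of the TNF-α-only response.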

Balb/C mice = assay: Asthma Protocol (ovalbumin sensitized and challenged mice, bronchoaveolar lavage); assay type: in vivo, mouse; settings: sc, daily dosing at 100 mg/kg from day 0–13, lavage fluid
Procedure: Balb/C mice (6–8 weeks old) are sensitized to ovalbumin (ova) (8 ug ova absorbed in 3.3 mg Alum inject) on days 0 and 5. On day 12, the mice were aerosol challenged with 0.5% ovalbumin dissolved in sterile saline for 1 hr in the AM, and then again in the PM (at least 4 hr apart). On day 14, the mice were anesthetized with ketamine/xylazine/acepromazine cocktail, exsanguinated, and then euthanized. Following blood collection, bronchoaveolar lavage was performed on each animal. Total cell counts were conducted on the lavage fluid, which was subsequently diluted with cell media 1:1. Slides of the lavage fluid were made by spinning the samples with a cytospin centrifuge. Slides were airdried and stained with x. Cell differentials of the lavage fluid were completed at the conclusion of the study. All compounds except Example 2 were well tolerated with no body weight loss throughout the course of the study. Statistical analysis involved ANOVA and Tukey-Kramer post hoc tests. Compounds were administered except where noted by subcutaneous injection once daily from day 0–13. The formulations used contained various mixtures of the following excipients (pharmasolve, cremophor RH 40, tween 80, PEG 300). See Biological Table 3

Row | Structure (SMILES) | pIC50 (VCAM-1; Homo sapiens, 16 h) | % Inhibition (Balb/C mice) [%] | melting point | pIC50 (VCAM-1)
1 | COc1cc(OC)c(-c2cc3ccccc3n2C(=O)OC(C)(C)C)cc1/C=C/C(=O)c1ccc(C(=O)O)cc1 [Example 36, 2-{5-[3-(4-Carboxy-phenyl)-3-oxo-E-propenyl]-2,4-dimethoxy-phenyl}-indole-1-carboxylic acid tert-butyl ester] | > 5.30 | 71 | 182 to 183 °C | 
2 | COc1cc(OC)c(-c2cc3ccccc3s2)cc1/C=C/C(=O)c1ccccc1C(=O)O [Example 7, 2-[3E-(5-Benzo[b]thiophen-2-yl-2,4-dimethoxy-phenyl)-acryloyl]-benzoic acid] |  |  | 220 to 223 °C (dec.) | > 6.00
3 | COc1cc(OCCN2CCOCC2)c(/C=C/C(=O)c2ccc(S(N)(=O)=O)cc2)cc1-c1cccs1 [Example 81, 4-{3E-[4-Methoxy-2-(2-morpholin-4-yl-ethoxy)-5-thiophen-2-yl-phenyl]-acryloyl}-benzenesulfonamide] | > 6.00 |  | 186 to 188 °C | 
4 | COc1cc(OC)c(-c2csc(C)n2)cc1/C=C/C(=O)c1ccc(C(=O)O)cc1 [Example 69, 4-{3E-[2,4-Dimethoxy-5-(2-methyl-thiazol-4-yl)-phenyl]-acryloyl}-benzoic acid] | > 5.30 |  | 201 to 202 °C (dec.) | 
5 | COc1cc(OC)c(-c2cc3ccccc3s2)cc1/C=C/C(=O)c1ccc(C(=O)NCC(F)(F)F)cc1 [Example 91, 4-[3E-(5-Benzo[b]thiophen-2-yl-2,4-dimethoxy-phenyl)-acryloyl]-N-(2,2,2-trifluoro-ethyl)-benzamide] | > 5.30 |  | 215 to 217 °C | 
6 | NS(=O)(=O)c1ccc(C(=O)/C=C/c2ccc(-c3cccs3)cc2)cc1 [Example 26, 4-[3E-(4-Thiophen-2-yl-phenyl)-acryloyl]-benzenesulfonamide] | < 5.00 |  | > 245 °C | 
7 | COc1cc(OC)c(-c2cc3ccccc3[nH]2)cc1/C=C/C(=O)c1ccc(C(=O)O)cc1 [Example 61, 4-{3E-[5-(1H-Indol-2-yl)-2,4-dimethoxy-phenyl]-acryloyl}-benzoic acid] | > 6.00 |  | 210 to 212 °C | 
8 | COc1cc(OC)c(-c2cccs2)cc1/C=C/C(=O)c1ccccc1C(=O)O [Example 35, 2-[3E-(2,4-Dimethoxy-5-thiophen-2-yl-phenyl)-acryloyl]-benzoic acid] | < 5.00 |  | 196 to 198 °C | 
9 | COc1cc(OCn2nnc3ccccc32)c(/C=C/C(=O)c2ccc(S(N)(=O)=O)cc2)cc1-c1cccs1 [Example 115, 4-{3E-[2-(Benzotriazol-1-ylmethoxy)-4-methoxy-5-thiophen-2-yl-phenyl]-acryloyl}-benzenesulfonamide] | > 5.30 |  | 255 °C (dec.) | 
10 | COc1cc(OC)c(-c2nncn2CC(C)C)cc1/C=C/C(=O)c1ccc(C(=O)O)cc1 [Example 110, 4-{3E-[5-(4-Isobutyl-4H-[1,2,4]triazol-3-yl)-2,4-dimethoxy-phenyl]-acryloyl}-benzoic acid] | < 5.00 |  | > 240 °C (dec.) | 
11 | COc1cc(OCc2nc3ccccc3[nH]2)c(/C=C/C(=O)c2ccc(S(N)(=O)=O)cc2)cc1-c1cccs1 [Example 113, 4-{3E-[2-(1H-Benzoimidazol-2-ylmethoxy)-4-methoxy-5-thiophen-2-yl-phenyl]-acryloyl}-benzenesulfonamide] | > 5.30 |  | 235 to 237 °C (dec.) | 
12 | COc1cc(OC)c(-c2cc3ccccc3[nH]2)cc1/C=C/C(=O)c1ccc(S(N)(=O)=O)cc1 [Example 84, 4-{3E-[5-(1H-Indol-2-yl)-2,4-dimethoxy-phenyl]-acryloyl}-benzenesulfonamide] | > 5.30 |  | 185 to 187 °C | 
13 | COc1cc(OCc2c(C)noc2C)c(/C=C/C(=O)c2ccc(C(=O)O)cc2)cc1-c1cccs1 [Example 62, 4-{3E-[2-(3,5-Dimethyl-isoxazol-4-ylmethoxy)-4-methoxy-5-thiolphen-2-yl-phenyl]-acryloyl}-benzoic acid] | > 5.30 |  | 213 to 215 °C | 
14 | COc1cc(OC)c(-c2nn[nH]n2)cc1/C=C/C(=O)c1ccc(C(=O)O)cc1 [Example 75, 4-{3E-[2,4-Dimethoxy-5-(2H-tetrazol-5-yl)-phenyl]-acryloyl}-benzoic acid] | < 5.00 |  | 218 °C (dec.) | 
15 | COc1cc(OCC(CO)CO)c(-c2cccs2)cc1/C=C/C(=O)c1ccc(S(N)(=O)=O)cc1 [Example 106, 4-{3E-[4-(3-Hydroxy-2-hydroxymethyl-propoxy)-2-methoxy-5-thiophen-2-yl-phenyl]-acryloyl}-benzenesulfonamide] | > 5.00 |  | 191 to 192 °C | 
16 | CCOC(=O)CNC(=O)N(C(=O)NCC(=O)OCC)c1ccc(C(=O)/C=C/c2cc(OC)c(OC)c(-c3cccs3)c2)cc1 [Example 16, (3-[Ethoxycarbonylmethylaminocarbonyl]-3-{4-[3E-(3,4-dimethoxy-5-thiophen-2-yl-phenyl)-acryloyl]-phenyl}-ureido)-acetic acid ethyl ester] | > 5.30 |  | 83 to 86 °C | 
17 | COc1cc(O)c(/C=C/C(=O)c2ccc(C(=O)O)cc2)cc1-c1cccs1 [Example 58, 4-[3E-(2-Hydroxy-4-methoxy-5-thiophen-2-yl-phenyl)-acryloyl]-benzoic acid] | < 5.00 |  | 125 °C (dec.) | 
18 | COc1cc(OCC(CO)CO)c(-c2cccs2)cc1/C=C/C(=O)c1ccc(C(=O)O)cc1 [Example 50, 4-{3E-[4-(3-Hydroxy-2-hydroxymethyl-propoxy)-2-methoxy-5-thiophen-2-yl-phenyl]-acryloyl}-benzoic acid] | < 5.00 |  | 199 to 201 °C | 
19 | COc1ccc(/C=C/C(=O)c2ccc(C(=O)O)cc2)c(-c2cccs2)c1 [Example 34, 4-[3E-(4-Methoxy-2-thiophen-2-yl-phenyl)-acryloyl]-benzoic acid] | < 5.00 |  | 209 to 211 °C | 
20 | O=C(O)c1ccc(/C=C/C(=O)c2ccc(-c3cccs3)cc2)cc1 [Example 18, 4-[3-{4-(thien-2-yl)-phenyl}-3-oxo-E-propenyl]-benzoic acid] | > 5.30 |  | 260 to 265 °C | 
21 | COc1cc(OCC(CO)CO)c(/C=C/C(=O)c2ccc(C(=O)O)cc2)cc1-c1cccs1 [Example 64, 4-{3E-[2-(3-Hydroxy-2-hydroxymethyl-propoxy)-4-methoxy-5-thiophen-2-yl-phenyl]-acryloyl}-benzoic acid] | < 5.00 |  | 219 to 220 °C | 
22 | O=C(O)c1ccc(C(=O)/C=C/c2ccc(F)c(-c3cccs3)c2)cc1 [Example 21, 4-[3E-{4-Fluoro-3-(thiophen-2-yl)-phenyl}-acryloyl]-benzoic acid] | > 5.30 |  | 242 to 244 °C | 
23 | COc1cc(OC)c(-c2cc3ccccc3n2C)cc1/C=C/C(=O)c1ccc(S(N)(=O)=O)cc1 [Example 117, 4-{3E-[2,4-Dimethoxy-5-(1-methyl-1H-indol-2-yl)-phenyl]-acryloyl}-benzenesulfonamide] | > 5.30 |  | 148 to 150 °C | 
24 | O=C(O)c1ccc(C(=O)/C=C/c2ccc(-c3cccs3)cc2F)cc1 [Example 30, 4-[3E-(2-Fluoro-4-thiophen-2-yl-phenyl)-acryloyl]-benzoic acid] | > 6.00 |  | > 260 °C | 
25 | COc1cc(OC)c(-c2cccn2C(=O)OC(C)(C)C)cc1/C=C/C(=O)c1ccc(C(=O)O)cc1 [Example 57, 2-{5-[3-(4-Carboxy-phenyl)-3-oxo-E-propenyl]-2,4-dimethoxy-phenyl}-pyrrole-1-carboxylic acid tert-butyl ester] | > 5.30 |  | 205 to 207 °C | 
26 | CCOc1cc(OC)c(/C=C/C(=O)c2ccc(C(=O)O)cc2)cc1-c1cccs1 [Example 53, 4-[3E-(4-Ethoxy-2-methoxy-5-thiophen-2-yl-phenyl)-acryloyl]-benzoic acid] | > 5.30 |  | 210 to 212 °C | 
27 | COc1cc(OCCCN2CCOCC2)c(/C=C/C(=O)c2ccc(S(N)(=O)=O)cc2)cc1-c1cccs1 [Example 85, 4-{3E-[4-Methoxy-2-(3-morpholin-4-yl-propoxy)-5-thiophen-2-yl-phenyl]-acryloyl}-benzenesulfonamide] | > 6.00 |  | 193 to 196 °C | 
28 | COc1cc(OC)c(/C=C/C(=O)c2ccc(C(=O)O)cc2)c(-c2cccs2)c1 [Example 39, 4-[3E-(2,4-Dimethoxy-6-thiophen-2-yl-phenyl)-acryloyl]-benzoic acid] | < 5.00 |  | 231 °C (dec.) | 
29 | COc1cc(OC)c(-c2c(C)noc2C)cc1/C=C/C(=O)c1ccc(C(=O)O)cc1 [Example 33, 4-{3E-[5-(3,5-Dimethyl-isoxazol-4-yl)-2,4-dimethoxy-phenyl]-acryloyl}-benzoic acid] | > 5.30 |  | > 260 °C | 
30 | O=C(O)c1ccc(C(=O)/C=C/c2ccc(-c3cccs3)cc2)cc1 [Example 10, 4-[3E-(4-Thiophen-2-yl-phenyl)-acryloyl]-benzoic acid] | > 5.30 |  | > 260 °C | 
